Measured values from PubChem BioAssay (NCI).
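Dose response: 5 concentrations. Exposure: 48 h. Format: 96-well plates. Endpoint: linear interpolation; highest concentration if not reached. TGI denotes the concentration required for complete inhibition of growth.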

Legend:
Assay in all cases: DTP human tumour cell line panel, 48 h
K-562 leukemia = test system: K-562 leukemia
MALME-3M melanoma = test system: MALME-3M melanoma
OVCAR-3 ovarian = test system: OVCAR-3 ovarian
HS 578T breast = test system: HS 578T breast
NCI-H226 lung = test system: NCI-H226 lung
SR leukemia = test system: SR leukemia
786-0 renal = test system: 786-0 renal
SN12C renal = test system: SN12C renal
HL-60(TB) leukemia = test system: HL-60(TB) leukemia
MDA-MB-435 = test system: MDA-MB-435
MOLT-4 leukemia = test system: MOLT-4 leukemia
T-47D breast = test system: T-47D breast
UACC-62 melanoma = test system: UACC-62 melanoma
HCC-2998 colon = test system: HCC-2998 colon
OVCAR-4 ovarian = test system: OVCAR-4 ovarian
HOP-92 NSCLC = test system: HOP-92 NSCLC
SF-539 CNS = test system: SF-539 CNS
NCI/ADR-RES ovarian = test system: NCI/ADR-RES ovarian
HT29 colon = test system: HT29 colon
A498 renal = test system: A498 renal
RPMI-8226 leukemia = test system: RPMI-8226 leukemia
DU-145 prostate = test system: DU-145 prostate
MCF7 breast = test system: MCF7 breast
BT-549 breast = test system: BT-549 breast
SNB-75 CNS = test system: SNB-75 CNS
UACC-257 melanoma = test system: UACC-257 melanoma
NCI-H522 lung = test system: NCI-H522 lung
SF-295 CNS = test system: SF-295 CNS
U251 CNS = test system: U251 CNS
ACHN renal = test system: ACHN renal
RXF 393 renal = test system: RXF 393 renal
IGROV1 ovarian = test system: IGROV1 ovarian
MDA-N = test system: MDA-N
HCT-116 colon = test system: HCT-116 colon
NCI-H460 lung = test system: NCI-H460 lung
KM12 colon = test system: KM12 colon
COLO 205 colon = test system: COLO 205 colon
HOP-62 NSCLC = test system: HOP-62 NSCLC
CAKI-1 renal = test system: CAKI-1 renal
M14 melanoma = test system: M14 melanoma
SK-MEL-2 melanoma = test system: SK-MEL-2 melanoma
SF-268 CNS = test system: SF-268 CNS
TK-10 renal = test system: TK-10 renal
SK-MEL-5 melanoma = test system: SK-MEL-5 melanoma
LOX IMVI melanoma = test system: LOX IMVI melanoma
UO-31 renal = test system: UO-31 renal
SW-620 colon = test system: SW-620 colon
EKVX NSCLC = test system: EKVX NSCLC
PC-3 prostate = test system: PC-3 prostate
OVCAR-8 ovarian = test system: OVCAR-8 ovarian
SNB-19 CNS = test system: SNB-19 CNS
HCT-15 colon = test system: HCT-15 colon
OVCAR-5 ovarian = test system: OVCAR-5 ovarian
A549 NSCLC = test system: A549 NSCLC
CCRF-CEM leukemia = test system: CCRF-CEM leukemia
SK-MEL-28 melanoma = test system: SK-MEL-28 melanoma
NCI-H23 lung = test system: NCI-H23 lung

Work on `COC(=O)c1ccccc1/C=C1\Cc2cc(C)c(C)cc2C1=O` yielded a TGI (K-562 leukemia) greater than 100 µM, a TGI (MALME-3M melanoma) greater than 100 µM and a TGI (OVCAR-3 ovarian) greater than 100 µM. For the same compound, the TGI (HS 578T breast) was greater than 100 µM, the TGI (NCI-H226 lung) was greater than 100 µM and the TGI (SR leukemia) was greater than 100 µM. It also gave a TGI (786-0 renal) greater than 100 µM, a TGI (SN12C renal) greater than 100 µM and a TGI (HL-60(TB) leukemia) greater than 100 µM. It also gave a TGI (MDA-MB-435) greater than 100 µM, a TGI (MOLT-4 leukemia) greater than 100 µM and a TGI (T-47D breast) greater than 100 µM. It also gave a TGI (UACC-62 melanoma) greater than 100 µM, a TGI (HCC-2998 colon) greater than 100 µM and a TGI (OVCAR-4 ovarian) greater than 100 µM. For the same compound, the TGI (HOP-92 NSCLC) was 59.2 µM, the TGI (SF-539 CNS) was greater than 100 µM and the TGI (NCI/ADR-RES ovarian) was greater than 100 µM. For the same compound, the TGI (HT29 colon) was greater than 100 µM, the TGI (A498 renal) was greater than 100 µM and the TGI (RPMI-8226 leukemia) was greater than 100 µM. For the same compound, the TGI (DU-145 prostate) was greater than 100 µM, the TGI (MCF7 breast) was greater than 100 µM and the TGI (BT-549 breast) was greater than 100 µM. For the same compound, the TGI (SNB-75 CNS) was 81.3 µM, the TGI (UACC-257 melanoma) was greater than 100 µM and the TGI (NCI-H522 lung) was greater than 100 µM. It also gave a TGI (SF-295 CNS) greater than 100 µM, a TGI (U251 CNS) of 96.8 µM and a TGI (ACHN renal) greater than 100 µM. It also gave a TGI (RXF 393 renal) greater than 100 µM, a TGI (IGROV1 ovarian) greater than 100 µM and a TGI (MDA-N) greater than 100 µM. For the same compound, the TGI (HCT-116 colon) was greater than 100 µM, the TGI (NCI-H460 lung) was greater than 100 µM and the TGI (KM12 colon) was greater than 100 µM. For the same compound, the TGI (COLO 205 colon) was greater than 100 µM, the TGI (HOP-62 NSCLC) was 85.8 µM and the TGI (CAKI-1 renal) was greater than 100 µM. The TGI (M14 melanoma) was greater than 100 µM, the TGI (SK-MEL-2 melanoma) was 68.3 µM and the TGI (SF-268 CNS) was greater than 100 µM. For the same compound, the TGI (TK-10 renal) was 86.6 µM, the TGI (SK-MEL-5 melanoma) was greater than 100 µM and the TGI (LOX IMVI melanoma) was greater than 100 µM. For the same compound, the TGI (UO-31 renal) was greater than 100 µM, the TGI (SW-620 colon) was greater than 100 µM and the TGI (EKVX NSCLC) was greater than 100 µM. For the same compound, the TGI (PC-3 prostate) was greater than 100 µM, the TGI (OVCAR-8 ovarian) was greater than 100 µM and the TGI (SNB-19 CNS) was greater than 100 µM. The TGI (HCT-15 colon) was greater than 100 µM, the TGI (OVCAR-5 ovarian) was greater than 100 µM and the TGI (A549 NSCLC) was greater than 100 µM. The TGI (CCRF-CEM leukemia) was greater than 100 µM and the TGI (SK-MEL-28 melanoma) was greater than 100 µM.
For `O=C1/C(=C/c2ccco2)N=C(c2ccccc2)N1c1cc2cc(Sc3ccccc3)ccc2[nH]1`, the TGI (K-562 leukemia) was greater than 25 µM, the TGI (MALME-3M melanoma) was greater than 25 µM and the TGI (HS 578T breast) was greater than 25 µM. It also gave a TGI (NCI-H23 lung) greater than 25 µM, a TGI (SR leukemia) greater than 25 µM and a TGI (786-0 renal) greater than 25 µM. It also gave a TGI (SN12C renal) greater than 25 µM, a TGI (HL-60(TB) leukemia) of 5.96 µM and a TGI (MDA-MB-435) greater than 25 µM. The TGI (MOLT-4 leukemia) was greater than 25 µM, the TGI (T-47D breast) was greater than 25 µM and the TGI (UACC-62 melanoma) was greater than 25 µM. For the same compound, the TGI (OVCAR-4 ovarian) was greater than 25 µM, the TGI (HOP-92 NSCLC) was greater than 25 µM and the TGI (SF-539 CNS) was greater than 25 µM. The TGI (NCI/ADR-RES ovarian) was greater than 25 µM, the TGI (HT29 colon) was greater than 25 µM and the TGI (A498 renal) was greater than 25 µM. The TGI (RPMI-8226 leukemia) was 2.4 µM, the TGI (DU-145 prostate) was greater than 25 µM and the TGI (MCF7 breast) was greater than 25 µM. The TGI (BT-549 breast) was greater than 25 µM, the TGI (SNB-75 CNS) was greater than 25 µM and the TGI (NCI-H522 lung) was greater than 25 µM. It also gave a TGI (ACHN renal) greater than 25 µM, a TGI (RXF 393 renal) greater than 25 µM and a TGI (IGROV1 ovarian) greater than 25 µM. It also gave a TGI (MDA-N) greater than 25 µM, a TGI (HCT-116 colon) greater than 25 µM and a TGI (COLO 205 colon) greater than 25 µM. The TGI (CAKI-1 renal) was greater than 25 µM, the TGI (M14 melanoma) was greater than 25 µM and the TGI (SK-MEL-2 melanoma) was greater than 25 µM. The TGI (SF-268 CNS) was greater than 25 µM, the TGI (LOX IMVI melanoma) was greater than 25 µM and the TGI (UO-31 renal) was greater than 25 µM. It also gave a TGI (SW-620 colon) greater than 25 µM, a TGI (EKVX NSCLC) greater than 25 µM and a TGI (PC-3 prostate) greater than 25 µM. For the same compound, the TGI (OVCAR-8 ovarian) was greater than 25 µM, the TGI (SNB-19 CNS) was greater than 25 µM and the TGI (HCT-15 colon) was greater than 25 µM. For the same compound, the TGI (OVCAR-5 ovarian) was greater than 25 µM, the TGI (A549 NSCLC) was greater than 25 µM and the TGI (CCRF-CEM leukemia) was greater than 25 µM. For the same compound, the TGI (SK-MEL-28 melanoma) was greater than 25 µM.
